In publication PMC4740973 (Bioconjugate chemistry, 2015):
Where two headings read alike, the source gives them in different places.

Tests used:
[1] = cited from earlier work
MMP-9 = MMP-9 (Mus musculus, UniProt P41245); experiment: Peptide cleavage by recombinant MMP-9; type: biochemical; settings: prinomastat added to prodrug with MMP-9, similar conditions (Figure S1)
Chain of MMP-9 (P41245 108-730): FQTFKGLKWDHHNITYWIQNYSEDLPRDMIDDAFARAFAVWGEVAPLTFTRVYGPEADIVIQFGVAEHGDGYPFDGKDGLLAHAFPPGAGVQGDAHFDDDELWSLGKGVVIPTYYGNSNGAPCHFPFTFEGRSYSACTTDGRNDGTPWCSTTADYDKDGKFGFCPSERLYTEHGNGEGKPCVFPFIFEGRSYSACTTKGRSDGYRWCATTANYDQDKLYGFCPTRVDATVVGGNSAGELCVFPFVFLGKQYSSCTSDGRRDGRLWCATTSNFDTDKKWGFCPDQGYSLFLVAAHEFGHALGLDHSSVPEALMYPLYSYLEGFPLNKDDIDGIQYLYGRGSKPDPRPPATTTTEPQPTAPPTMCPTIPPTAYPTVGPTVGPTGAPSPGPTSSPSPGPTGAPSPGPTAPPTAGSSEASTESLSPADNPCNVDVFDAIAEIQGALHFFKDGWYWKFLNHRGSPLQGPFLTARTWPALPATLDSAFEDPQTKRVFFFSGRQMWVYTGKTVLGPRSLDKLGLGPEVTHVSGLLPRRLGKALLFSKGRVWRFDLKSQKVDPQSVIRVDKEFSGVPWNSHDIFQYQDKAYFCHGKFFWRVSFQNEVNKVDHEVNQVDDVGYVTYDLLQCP

CC[C@H](C)[C@H](NC(=O)CN)C(=O)NCC(=O)N[C@@H](C)C(=O)N[C@H](C(=O)N[C@@H](CC(C)C)C(=O)N[C@@H](CCCCN)C(=O)N[C@H](C(=O)N[C@@H](CC(C)C)C(=O)N[C@H](C(=O)N[C@H](C(=O)NCC(=O)N[C@@H](CC(C)C)C(=O)N1CCC[C@H]1C(=O)N[C@@H](C)C(=O)N[C@@H](CC(C)C)C(=O)N[C@H](C(=O)N[C@@H](CO)C(=O)N[C@@H](Cc1c[nH]c2ccccc12)C(=O)N[C@H](C(=O)N[C@@H](CCCCN)C(=O)N[C@@H](CCCNC(=N)N)C(=O)N[C@@H](CCCCN)C(=O)N[C@@H](CCCNC(=N)N)C(=O)N[C@@H](CCC(N)=O)C(=O)N[C@@H](CCC(N)=O)C(N)=O)[C@@H](C)CC)[C@@H](C)CC)[C@@H](C)O)[C@@H](C)O)C(C)C)C(C)C [melittin, Melittin]
plasma half-life ([1]; free melittin): 24 min
plasma half-life ([1]; melittin incorporated onto perfluorocarbon nanoparticles): over 300 minutes

CC1(C)SCCN(S(=O)(=O)c2ccc(Oc3ccncc3)cc2)[C@H]1C(=O)NO [prinomastat]
effect on prodrug cleavage by MMP-9 (MMP-9): prevented cleavage of the prodrug
